Results from patent US20220323406A1, “METHODS AND COMPOSITIONS FOR DIFFERENTIATING STEM CELLS” (Massachusetts Institute of Technology, priority 2019, published 2022).

Key:
ENR+CD organoids = test: Primary screen: ATP (CellTiter-Glo 3D, CTG) cell number/viability, 2.5-D 384-well ENR+CD organoids; details: primary screen;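 further: compounds given at plating and again on day 3 over a 6-day differentiation from ENR+CV stem-cell-enriched precursors, ATP measured on day 6, plate median as control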
[1] = system: ENR+CD organoids (ISC to Paneth cell differentiation); test: Primary screen: basal (non-stimulated) lysozyme secretion LYZ.NS, 2.5-D 384-well ENR+CD organoid differentiation; type: cell-based, mouse; details: primary screen; for Z.LYZ.NS: standard z score
Text: (§1) High-throughput screening.

[2] = system: ENR+CD organoids (ISC to Paneth cell differentiation); test: Primary screen: CCh-stimulated lysozyme secretion LYZ.S, 2.5-D 384-well ENR+CD organoid differentiation; type: cell-based, mouse; details: primary screen
Text: as §1

[3] = dose 0.08 uM, FC relative to plate median
[4] = dose 0.40 uM, FC relative to plate median
[5] = dose 2.00 uM, FC relative to plate median
[6] = dose 10.00 uM, FC relative to plate median
[7] = dose 0.08 uM, FC vs plate median
[8] = dose 0.40 uM, FC vs plate median
[9] = dose 2.00 uM, FC vs plate median
[10] = dose 10.00 uM, FC vs plate median

Row | SMILES | Dose.FC.CTG (ENR+CD organoids; [3]) [log2 fold change] | Dose.FC.LYZ.NS [1, 3] [log2 fold change] | Z.LYZ.NS ([1]; dose 0.08 uM) | Z.LYZ.NS ([1]; dose 0.40 uM) | Z.LYZ.NS ([1]; dose 2.00 uM) | Z.LYZ.NS ([1]; dose 10.00 uM) | Dose.FC.LYZ.S [2, 3] [log2 fold change] | Dose.FC.CTG (log2 fold change) (ENR+CD organoids; dose 0.08 uM) | Dose.FC.CTG (log2 fold change) (ENR+CD organoids; dose 0.40 uM) | Dose.FC.CTG (log2 fold change) (ENR+CD organoids; dose 2.00 uM) | Dose.FC.CTG (log2 fold change) (ENR+CD organoids; dose 10.00 uM) | Dose.FC.LYZ.NS (log2 fold change) ([1]; dose 0.08 uM) | Z.LYZ.NS (standard z score) ([1]; dose 0.08 uM) | Dose.FC.LYZ.NS (log2 fold change) ([1]; dose 0.40 uM) | Z.LYZ.NS (standard z score) ([1]; dose 0.40 uM) | Dose.FC.LYZ.NS (log2 fold change) ([1]; dose 2.00 uM) | Z.LYZ.NS (standard z score) ([1]; dose 2.00 uM) | Dose.FC.LYZ.NS (log2 fold change) ([1]; dose 10.00 uM) | Z.LYZ.NS (standard z score) ([1]; dose 10.00 uM) | Dose.FC.LYZ.S (log2 fold change) ([2]; dose 0.08 uM) | also measured
1 | CC(NC(=O)c1ccccc1/N=C/c1c(O)ccc2ccccc12)c1ccccc1 (stereo not drawn) [Sirtinol] | −0.218 | 0.095 | 0.824 | 0.002 | 0.531 | 0.679 | 0.077 | – | – | – | – | – | – | – | – | – | – | – | – | – | Dose.FC.CTG (ENR+CD organoids; [4]): 0.009 log2 fold change; Dose.FC.CTG (ENR+CD organoids; [5]): −0.120 log2 fold change; Dose.FC.CTG (ENR+CD organoids; [6]): −0.078 log2 fold change; Dose.FC.LYZ.NS [1, 4]: 0.000 log2 fold change; Dose.FC.LYZ.NS [1, 5]: 0.061 log2 fold change; Dose.FC.LYZ.NS [1, 6]: 0.078 log2 fold change; Dose.FC.LYZ.S [2, 4]: 0.088 log2 fold change; Dose.FC.LYZ.S [2, 5]: 0.028 log2 fold change; Dose.FC.LYZ.S [2, 6]: 0.026 log2 fold change
2 | CCn1c(=O)c2c(nc(/C=C/c3ccc(OC)c(OC)c3)n2C)n(CC)c1=O [Istradefylline] | – | – | – | – | – | – | – | −0.045 | 0.066 | −0.157 | −0.038 | −0.015 | −0.131 | −0.035 | −0.304 | −0.003 | −0.022 | −0.041 | −0.353 | −0.029 | Dose.FC.LYZ.S (log2 fold change) ([2]; dose 0.40 uM): −0.087; Dose.FC.LYZ.S (log2 fold change) ([2]; dose 2.00 uM): −0.096; Dose.FC.LYZ.S (log2 fold change) ([2]; dose 10.00 uM): −0.057
3 | CO[C@H]1C[C@@H]2CC[C@@H](C)[C@@](O)(O2)C(=O)C(=O)N2CCCC[C@H]2C(=O)O[C@H]([C@H](C)C[C@@H]2CC[C@@H](OC(=O)C(C)(CO)CO)[C@H](OC)C2)CC(=O)[C@H](C)/C=C(\C)[C@@H](O)[C@@H](OC)C(=O)[C@H](C)C[C@H](C)/C=C/C=C/C=C/1C [Temsirolimus (CCI-779, NSC 683864)] | 0.514 | 0.091 | 0.790 | – | – | – | 0.082 | – | – | – | – | – | – | – | 0.763 | – | 1.494 | – | 1.035 | – | Z.CTG (ENR+CD organoids; dose 0.08 uM, standard z score): 1.228; Dose.FC.CTG (ENR+CD organoids; dose 0.40 uM): 0.583 log2 fold change; Z.CTG (standard z score) (ENR+CD organoids; dose 0.40 uM): 1.393; Dose.FC.CTG (ENR+CD organoids; dose 2.00 uM): 0.578 log2 fold change; Z.CTG (standard z score) (ENR+CD organoids; dose 2.00 uM): 1.382; Dose.FC.CTG (ENR+CD organoids; dose 10.00 uM): 0.200 log2 fold change; Z.CTG (standard z score) (ENR+CD organoids; dose 10.00 uM): 0.478; Dose.FC.LYZ.NS ([1]; dose 0.40 uM): 0.088 log2 fold change; Dose.FC.LYZ.NS ([1]; dose 2.00 uM): 0.172 log2 fold change; Dose.FC.LYZ.NS ([1]; dose 10.00 uM): 0.119 log2 fold change; Dose.FC.LYZ.S ([2]; dose 0.40 uM): 0.152 log2 fold change; Dose.FC.LYZ.S ([2]; dose 2.00 uM): 0.132 log2 fold change; Dose.FC.LYZ.S ([2]; dose 10.00 uM): 0.153 log2 fold change
4 | Nc1nc(CC(=O)Nc2ccc(CCNC[C@H](O)c3ccccc3)cc2)cs1 [Mirabegron] | – | – | 1.201 | −0.259 | −0.301 | 0.193 | – | – | – | – | – | – | – | – | – | – | – | – | – | – | Dose.FC.CTG (ENR+CD organoids; [7]): 0.029 log2 fold change; Dose.FC.CTG (ENR+CD organoids; [8]): −0.335 log2 fold change; Dose.FC.CTG (ENR+CD organoids; [9]): 0.019 log2 fold change; Dose.FC.CTG (ENR+CD organoids; [10]): −0.051 log2 fold change; Dose.FC.LYZ.NS [1, 7]: 0.138 log2 fold change; Dose.FC.LYZ.NS [1, 8]: −0.030 log2 fold change; Dose.FC.LYZ.NS [1, 9]: −0.035 log2 fold change; Dose.FC.LYZ.NS [1, 10]: 0.022 log2 fold change; Dose.FC.LYZ.S [2, 7]: 0.148 log2 fold change; Dose.FC.LYZ.S [2, 8]: −0.016 log2 fold change; Dose.FC.LYZ.S [2, 9]: −0.049 log2 fold change; Dose.FC.LYZ.S [2, 10]: −0.010 log2 fold change
5 | O=C(Nc1cc(C(F)(F)F)cc(C(F)(F)F)c1)c1cc(Cl)ccc1O [IMD 0354] | – | – | – | – | – | – | – | −0.007 | 0.117 | 0.076 | −0.480 | 0.004 | 0.035 | 0.101 | 0.880 | 0.097 | 0.847 | −0.089 | −0.777 | −0.047 | Dose.FC.LYZ.S (log2 fold change) ([2]; dose 0.40 uM): 0.043; Dose.FC.LYZ.S (log2 fold change) ([2]; dose 2.00 uM): 0.083; Dose.FC.LYZ.S (log2 fold change) ([2]; dose 10.00 uM): −0.128
